Data reported in patent publication US11291684B2, “Treatment of glaucoma” (TX MEDIC AB, priority 2017, dated 2022).

Test system: retinal nerve fiber layer (RNFL)
Experiment: OCT analysis of retinal nerve fiber layer in TGF-β-induced glaucoma model
Format: in vivo, Sprague Dawley rats
Conditions: rat TGF-β glaucoma model; day 28
Experimental: Glaucoma was induced in adult male Sprague Dawley rats by repeat twice weekly intracameral (IC) injections of transforming growth factor-β (TGF-β) to increase intraocular pressure (IOP). Sustained increases in IOP (after two weeks) leads to death of retinal ganglion cells (30-40%). Dextran sulfate (Tikomed AB, Sweden, WO 2016/076780) was administered at 15 mg/kg by daily subcutaneous injection from […] to assess RGC protection compared to controls.
Measured End-Points • IOP twice weekly throughout study from day 0 to day 28; • Immunohistochemistry for counting RGC that are immunoreactive for brain-specific homeobox/POU domain protein 3A (Brn3a) at day 28 (RGC survival); • Immunohistochemistry for laminin and fibronectin to evaluate scarring in the trabecular meshwork at day 28 in Groups 1 and 2; • Anterior segment and OCT imaging at day 28 to examine the angle and the thickness of the retinal nerve fiber layer comprising RGC axons; and • Body weight at day 28.
Optical coherence tomography allows in vivo measuring of retinal thickness with RNFL being a surrogate measure of RGC density. OCT retinal nerve fiber layer analysis was performed at day 28 on all rats while under inhalation anesthesia using a Spectralis HRA3 confocal scanning laser ophthalmoscope (Heidelberg Engineering). […] In-built software was used to segment the images and quantify the RNFL thickness.

Substance: dextran sulfate
- RNFL (OCT) compared to saline treatment: preserved
